Among the targets are αCβ2 (Oncopeltus fasciatus, UniProt A0A8S4MUF7); αCβ3 (Oncopeltus fasciatus, UniProt A0A8S4MUF7); αCβ1 (Oncopeltus fasciatus, UniProt A0A8S4MUF7).
Holding throughout (assay): ATPase activity, photometric phosphate release, Sf9 membranes
Holding throughout (type): biochemical

The record followed here is paper doi:10.1101/2020.08.28.272054v2 (biorxiv, 2021).

Chain of αCβ3 (A0A8S4MUF7 1-1007): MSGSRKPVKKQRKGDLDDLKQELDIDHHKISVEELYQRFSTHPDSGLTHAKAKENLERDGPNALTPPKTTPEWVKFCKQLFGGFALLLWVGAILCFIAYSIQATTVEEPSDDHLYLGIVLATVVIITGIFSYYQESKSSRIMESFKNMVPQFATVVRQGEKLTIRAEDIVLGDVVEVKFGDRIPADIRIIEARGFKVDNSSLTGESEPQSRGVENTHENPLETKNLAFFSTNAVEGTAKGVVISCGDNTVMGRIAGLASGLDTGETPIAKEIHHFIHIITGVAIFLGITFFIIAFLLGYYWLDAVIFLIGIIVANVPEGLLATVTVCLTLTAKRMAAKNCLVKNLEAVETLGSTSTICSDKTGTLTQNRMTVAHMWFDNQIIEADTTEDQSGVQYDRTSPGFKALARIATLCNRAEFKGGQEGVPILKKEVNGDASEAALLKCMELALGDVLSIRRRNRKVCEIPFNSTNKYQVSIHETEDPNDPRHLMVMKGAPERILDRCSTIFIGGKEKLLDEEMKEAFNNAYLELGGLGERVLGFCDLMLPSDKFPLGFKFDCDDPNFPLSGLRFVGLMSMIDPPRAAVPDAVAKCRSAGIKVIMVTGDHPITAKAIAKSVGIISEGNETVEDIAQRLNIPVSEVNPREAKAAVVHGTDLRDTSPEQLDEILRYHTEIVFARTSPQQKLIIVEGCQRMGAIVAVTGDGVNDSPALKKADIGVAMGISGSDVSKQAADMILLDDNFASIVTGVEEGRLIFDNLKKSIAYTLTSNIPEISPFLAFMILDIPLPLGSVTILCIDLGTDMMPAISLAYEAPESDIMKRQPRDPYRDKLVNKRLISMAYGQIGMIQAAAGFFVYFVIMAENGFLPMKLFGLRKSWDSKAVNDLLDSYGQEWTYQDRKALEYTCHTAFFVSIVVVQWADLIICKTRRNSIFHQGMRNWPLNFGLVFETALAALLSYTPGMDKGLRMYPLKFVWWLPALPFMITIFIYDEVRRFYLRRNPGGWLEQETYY
Chain of αCβ3 (A0A8S4MV14 1-314 partner): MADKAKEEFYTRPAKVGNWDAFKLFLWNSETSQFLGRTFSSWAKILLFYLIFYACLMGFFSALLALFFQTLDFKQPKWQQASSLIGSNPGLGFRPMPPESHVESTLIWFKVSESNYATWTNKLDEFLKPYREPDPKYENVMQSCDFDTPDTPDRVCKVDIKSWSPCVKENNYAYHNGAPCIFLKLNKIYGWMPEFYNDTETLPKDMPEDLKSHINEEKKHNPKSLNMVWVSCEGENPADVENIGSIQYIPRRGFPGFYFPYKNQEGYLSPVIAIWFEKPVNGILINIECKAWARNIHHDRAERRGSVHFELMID
Chain of αCβ2 (A0A8S4MUF7 1-1007): as the sequence (A0A8S4MUF7 1-1007) above
Chain of αCβ2 (A0A8S4MTQ8 1-322 partner): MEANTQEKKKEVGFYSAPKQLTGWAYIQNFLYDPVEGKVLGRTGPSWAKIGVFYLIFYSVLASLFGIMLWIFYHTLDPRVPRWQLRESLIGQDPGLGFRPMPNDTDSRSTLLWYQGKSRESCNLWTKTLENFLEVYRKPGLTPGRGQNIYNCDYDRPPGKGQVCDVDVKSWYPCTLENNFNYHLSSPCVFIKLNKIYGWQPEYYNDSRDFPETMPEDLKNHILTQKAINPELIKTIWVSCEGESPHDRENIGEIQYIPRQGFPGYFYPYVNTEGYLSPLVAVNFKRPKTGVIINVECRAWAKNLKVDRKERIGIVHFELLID
Chain of αCβ1 (A0A8S4MUF7 1-1007): as the sequence (A0A8S4MUF7 1-1007) above
Chain of αCβ1 (A0A8S4MTC7 1-330 partner): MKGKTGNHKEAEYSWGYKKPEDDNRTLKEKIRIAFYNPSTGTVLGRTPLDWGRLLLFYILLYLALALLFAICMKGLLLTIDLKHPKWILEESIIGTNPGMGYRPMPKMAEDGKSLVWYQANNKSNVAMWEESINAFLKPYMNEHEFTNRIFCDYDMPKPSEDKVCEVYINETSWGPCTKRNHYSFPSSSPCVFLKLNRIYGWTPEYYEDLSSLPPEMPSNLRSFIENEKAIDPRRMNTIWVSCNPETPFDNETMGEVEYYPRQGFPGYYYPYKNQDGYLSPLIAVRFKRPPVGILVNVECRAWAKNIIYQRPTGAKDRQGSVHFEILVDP

For `C[C@@H]1O[C@@H](O[C@H]2C[C@@H](O)[C@]3(CO)[C@H]4[C@H](O)C[C@]5(C)[C@@H](C6=CC(=O)OC6)CC[C@]5(O)[C@@H]4CC[C@]3(O)C2)[C@H](O)[C@H](O)[C@H]1O` [ouabain], the figures for the 50% inhibitory concentration (IC50) on αCβ2, on αCβ3 and on αCβ1 were 737 µM, 758 µM and 427 µM, respectively.

Broadly, the IC50 is the concentration that gives 50% inhibition.
